In PMC11303713, “Allosteric inhibition of CFTR gating by CFTRinh-172 binding in the pore” (Nature Communications, 2024):
Where “and” joins values, the source holds several entries; their conditions need not be identical. Equal entries are not always repeated. Where two headings read alike, the source gives them in different places.

How the values were obtained:
[1] = Visible precipitates in perfusion solution; assay type: physicochemical
Excerpt: Point 7 (poorly deﬁned dose-response curves): The authors response would seem to explain why points may be missing from the left side of the plot (Fig 4e), but I don't think it explains their absence from the right side. The data points for the three mutants roughly deﬁne a straight line. In order to have a meaningful ﬁt that can be used to extract a reliable IC50, one needs to sample higher and lower concentrations than the authors have done.
While I understand that there may be technical limitations that make this difficult or impossible, I think scientiﬁc rigor still has to be maintained. If the experiment cannot be done properly due to technical limitations, that is ﬁne, but low quality data should not be interpreted and presented. […]
and include in a publication. I also still think that the way the authors are reporting signiﬁcant ﬁgures this is not good practice, though this aspect is more of a stylistic/precision issue.
In Fig. 4e, we added 25 nM and 10 µM data points for WT-CFTR, and the newly added data […]
added 10 µM data point for M348K-CFTR, so that for all tested mutants, the maximum [Inh-172] is 10 µM (All related ﬁgures in the main text are updated). We could not increase [Inh-172] further because precipitates were seen gushing out of our perfusion tubing at concentrations ≥ 20 µM. […]

M348K-CFTR = biological target: T1, M348K-CFTR (Homo sapiens, UniProt P13569, M348K); assay: Inside-out patch-clamp inhibition of CFTR current by Inh-172; assay type: cell-based
T1 construct: expressed in transfected cells; host or cells: CHO cells, pcDNA plasmid
T1 sequence (P13569 whole entry M348K): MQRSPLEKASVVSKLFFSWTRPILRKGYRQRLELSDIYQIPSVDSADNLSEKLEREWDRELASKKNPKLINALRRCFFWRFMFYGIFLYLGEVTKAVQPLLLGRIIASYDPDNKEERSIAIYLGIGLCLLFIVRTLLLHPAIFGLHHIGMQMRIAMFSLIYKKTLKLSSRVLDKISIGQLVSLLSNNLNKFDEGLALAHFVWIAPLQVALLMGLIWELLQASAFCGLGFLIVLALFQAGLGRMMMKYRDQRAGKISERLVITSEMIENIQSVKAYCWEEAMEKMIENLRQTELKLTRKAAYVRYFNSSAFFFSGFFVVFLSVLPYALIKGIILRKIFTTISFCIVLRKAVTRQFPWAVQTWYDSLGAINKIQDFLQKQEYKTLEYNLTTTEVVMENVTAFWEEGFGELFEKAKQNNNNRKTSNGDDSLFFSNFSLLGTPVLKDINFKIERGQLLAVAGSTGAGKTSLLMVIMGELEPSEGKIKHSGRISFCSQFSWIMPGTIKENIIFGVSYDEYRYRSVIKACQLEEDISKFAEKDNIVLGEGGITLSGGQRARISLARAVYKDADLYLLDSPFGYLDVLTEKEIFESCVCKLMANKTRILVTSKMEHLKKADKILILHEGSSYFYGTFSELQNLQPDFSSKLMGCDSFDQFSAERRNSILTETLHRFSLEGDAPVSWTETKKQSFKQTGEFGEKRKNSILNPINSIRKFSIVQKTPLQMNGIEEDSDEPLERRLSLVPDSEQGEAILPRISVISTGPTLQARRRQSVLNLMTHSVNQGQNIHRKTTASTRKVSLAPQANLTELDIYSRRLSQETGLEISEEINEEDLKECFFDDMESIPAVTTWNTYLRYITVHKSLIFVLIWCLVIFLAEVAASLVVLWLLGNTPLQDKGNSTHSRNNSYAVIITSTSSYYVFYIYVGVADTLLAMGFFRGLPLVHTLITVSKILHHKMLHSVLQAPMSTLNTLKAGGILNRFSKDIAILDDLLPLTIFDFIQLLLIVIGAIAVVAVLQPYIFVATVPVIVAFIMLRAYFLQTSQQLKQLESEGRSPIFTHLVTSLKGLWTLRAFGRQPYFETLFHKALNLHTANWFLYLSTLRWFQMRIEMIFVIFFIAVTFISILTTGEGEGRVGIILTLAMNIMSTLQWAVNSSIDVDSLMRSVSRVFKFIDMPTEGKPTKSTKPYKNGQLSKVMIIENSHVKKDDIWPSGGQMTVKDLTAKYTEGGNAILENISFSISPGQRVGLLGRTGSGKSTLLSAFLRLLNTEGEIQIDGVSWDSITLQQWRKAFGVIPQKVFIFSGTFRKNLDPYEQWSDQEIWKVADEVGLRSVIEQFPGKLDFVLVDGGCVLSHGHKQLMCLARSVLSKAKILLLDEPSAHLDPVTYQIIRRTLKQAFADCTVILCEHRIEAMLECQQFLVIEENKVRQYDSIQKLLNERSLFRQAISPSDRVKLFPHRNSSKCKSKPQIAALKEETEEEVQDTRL
Protocol: (§1) CHO cells were grown at 37 °C in Dulbecco’s modified Eagle’s medium supplemented with 10% (vol/vol) fetal bovine serum (Sigma-Aldrich, St. Louis, MO). pcDNA plasmids carrying the desired CFTR construct were transfected to CHO cells using PolyFect transfection reagent (Qiagen, Hilden, Germany) together with green fluorescence protein (GFP) cDNA (pEGFP-C3, Takara Bio, Shiga, Japan) that helps identify expression of CFTR. Cells were first incubated with the transfection reagents at 37 °C for 6-12 hours on sterile glass chips in 35-mm tissue culture dishes before transferred to 27 °C for incubation for 2–7 days. Primers for mutations were ordered from Integrated DNA Technologies (Coralville, IA) and were summarized in Supplementary Data. All CFTR mutants were prepared with QuikChange XL kit (Agilent, Santa Clara, CA) and sequenced at the DNA Core facility at University of Missouri-Columbia.
(§2) Patch-clamp pipettes were made from borosilicate capillary glass using a two-stage vertical puller (PP-81; Narishige, Amityville, NY). The pipette tips were fire polished with a homemade microforge to yield a pipette resistance of 2–5 MΩ when filled with a pipette solution containing (in mM): 140 NMDG-Cl (N-methyl-D-glucamine-chloride), 5 CaCl2, 2 MgCl2, and 10 HEPES, pH 7.4. For recordings, transfected cells on glass chips were transferred into a continuously perfused chamber on the stage of an inverted microscope (IX51; Olympus, Tokyo, Japan) with the perfusing solution containing (in mM): 150 NMDG-Cl, 2 MgCl2, 10 EGTA, 8 Tris, and 10 HEPES, pH 7.4. The membrane patch was excised to an inside-out configuration with a seal resistance >40 GΩ. CFTR currents were recorded with an amplifier (EPC9; HEKA, Holliston, MA), filtered through an eight-pole Bessel filter (LPF-8; Warner Instruments, Hamden, CT) at 100 Hz and digitized to a computer at a sampling rate of 500 Hz with Pulse software (version 8.53; HEKA). The membrane potential was held at −30 mV. Solution exchange was achieved by a fast solution change system (SF-77B; Warner Instruments). Inh-172 was obtained from the CFTR Chemical Compound Program supported by the Cystic Fibrosis Foundation. All experiments were performed at room temperature.
(§3) The steady state mean currents were measured in the Igor Pro software (version 8.0; WaveMetrics). The mean baseline currents were subtracted from the steady state mean currents before the data were used to determine the degrees of inhibition. The degrees of inhibition by CFTR inhibitor 172 were calculated based on the equation:1 %inhibition=1−IInh−172/I0X100% where I0 and Iinh−172 represent uninhibited and inhibited currents, respectively. The IC50 and Hill coefficients were obtained by fitting percent inhibition as a function of [Inh-172] with the Hill equation:2 %inhibition=base+(max−base)/1+xhalf/x^rate where max and base represent the […] percent inhibition by Inh-172, x represents the concentration of Inh-172, and the rate is the Hill coefficient. The estimated IC50 (xhalf) and Hill coefficients are listed in Table 1 as mean ± standard deviation. Each patch-clamp recording was made from a separate cell.

[2] = biological target: T2, h-pTMD1-h-CFTR (human CFTR with pig CFTR's TMD1) (Homo sapiens, UniProt P13569, A209T/D426N/E115A/E407K/F315L/F87I/G228A/I125V/I215L/I231V/I328L/I332M/L145P/N418S/N445S/P41S/Q39H/R242K/S256N/T421I/V11I/V12F/V43S); assay: as above; assay type: cell-based
T2 construct: expressed in transfected cells; host or cells: CHO cells, pcDNA plasmid
T2 sequence (P13569 1-1480 with the stated changes): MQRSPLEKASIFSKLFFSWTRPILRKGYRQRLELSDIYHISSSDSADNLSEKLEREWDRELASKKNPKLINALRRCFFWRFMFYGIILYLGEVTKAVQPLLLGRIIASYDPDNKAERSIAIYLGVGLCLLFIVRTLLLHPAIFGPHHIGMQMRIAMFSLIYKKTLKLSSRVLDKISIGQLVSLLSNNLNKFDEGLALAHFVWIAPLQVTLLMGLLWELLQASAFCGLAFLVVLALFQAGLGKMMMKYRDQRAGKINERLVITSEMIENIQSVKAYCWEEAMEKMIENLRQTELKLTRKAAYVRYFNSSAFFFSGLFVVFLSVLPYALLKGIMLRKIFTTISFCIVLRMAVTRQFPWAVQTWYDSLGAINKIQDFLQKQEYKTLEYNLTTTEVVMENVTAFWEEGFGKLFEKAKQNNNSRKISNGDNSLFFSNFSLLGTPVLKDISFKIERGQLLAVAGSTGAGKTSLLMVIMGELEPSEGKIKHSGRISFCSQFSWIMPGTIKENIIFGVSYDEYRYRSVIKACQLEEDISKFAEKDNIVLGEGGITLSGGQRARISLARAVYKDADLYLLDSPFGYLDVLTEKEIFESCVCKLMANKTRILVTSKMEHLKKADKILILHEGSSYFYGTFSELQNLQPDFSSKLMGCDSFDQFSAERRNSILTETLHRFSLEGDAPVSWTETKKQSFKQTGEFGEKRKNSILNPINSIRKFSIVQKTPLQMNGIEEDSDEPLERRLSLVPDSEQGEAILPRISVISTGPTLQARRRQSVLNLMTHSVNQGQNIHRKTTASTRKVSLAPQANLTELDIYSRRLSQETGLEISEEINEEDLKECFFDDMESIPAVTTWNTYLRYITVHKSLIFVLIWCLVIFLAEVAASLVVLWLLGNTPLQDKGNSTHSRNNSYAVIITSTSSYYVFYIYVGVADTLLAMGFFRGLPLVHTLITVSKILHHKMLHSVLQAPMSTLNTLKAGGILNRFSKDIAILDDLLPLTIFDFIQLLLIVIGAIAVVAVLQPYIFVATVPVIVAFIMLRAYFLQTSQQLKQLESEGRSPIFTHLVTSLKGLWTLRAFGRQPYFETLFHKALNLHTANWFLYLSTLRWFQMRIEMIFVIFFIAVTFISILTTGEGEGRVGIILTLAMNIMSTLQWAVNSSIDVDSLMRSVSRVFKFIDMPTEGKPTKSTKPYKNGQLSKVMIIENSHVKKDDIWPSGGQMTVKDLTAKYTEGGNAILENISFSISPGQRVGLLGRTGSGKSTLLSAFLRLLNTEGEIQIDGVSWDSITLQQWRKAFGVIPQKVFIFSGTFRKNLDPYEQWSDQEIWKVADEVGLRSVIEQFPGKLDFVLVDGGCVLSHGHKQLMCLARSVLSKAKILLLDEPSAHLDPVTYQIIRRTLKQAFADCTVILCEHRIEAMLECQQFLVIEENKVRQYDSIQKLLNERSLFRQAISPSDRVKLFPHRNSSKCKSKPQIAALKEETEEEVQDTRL
Protocol: as §1, §2, §3

[3] = 100 nM Inh-172, read-out: percent inhibition of current, Mean
[4] = 500 nM Inh-172, read-out: percent inhibition of current, Mean
[5] = 1000 nM Inh-172, read-out: percent inhibition of current, Mean
[6] = 1000 nM Inh-172, read-out: percent inhibition of current, individual cell
[7] = 10000 nM Inh-172, read-out: percent inhibition of current, Mean
[8] = 10000 nM Inh-172, read-out: percent inhibition of current, individual cell

Question: For `O=C(O)c1ccc(/C=C2\SC(=S)N(c3cccc(C(F)(F)F)c3)C2=O)cc1` [Inh-172, CFTRinh-172], which “concentration at which precipitates were seen” value [1] is on record?
Answer: ≥ 20 µM

Question: What about the “percent inhibition of current, individual cell” value (shortened to “percent inhibition of current”) (M348K-CFTR; 100 nM Inh-172) of the same compound?
Answer: 10.0 and 17.0 and 1.0 and 23.0

Question: What about the inhibition at 0.1 µM (M348K-CFTR; [3]) of the same compound?
Answer: 12.8%

Question: And the “percent inhibition of current” value (M348K-CFTR; 250 nM Inh-172)?
Answer: 31.0 and 36.0 and 35.0

Question: What about the inhibition at 0.25 µM (M348K-CFTR; 250 nM Inh-172, read-out: percent inhibition of current, Mean) of the same compound?
Answer: 35.3%

Question: What about the inhibition at 0.25 µM (M348K-CFTR; 250 nM Inh-172, read-out: percent inhibition of current, individual cell) of the same compound?
Answer: 39%

Question: What about the “percent inhibition of current” value (M348K-CFTR; 500 nM Inh-172) of the same compound?
Answer: 50.0 and 41.0 and 62.0 and 56.0 and 63.0

Question: What about the inhibition at 0.5 µM (M348K-CFTR; [4]) of the same compound?
Answer: 54.4%

Question: And the “percent inhibition of current” value (M348K-CFTR; 1000 nM Inh-172)?
Answer: 61.0 and 64.0 and 60.0

Question: What about the inhibition at 1 µM (M348K-CFTR; [5]) of the same compound?
Answer: 64.2%

Question: And the inhibition at 1 µM (M348K-CFTR; [6])?
Answer: 68%

Question: And the “percent inhibition of current” value (M348K-CFTR; 5000 nM Inh-172)?
Answer: 94.0 and 84.0 and 81.0

Question: And the inhibition at 5 µM (M348K-CFTR; 5000 nM Inh-172, read-out: percent inhibition of current, Mean)?
Answer: 86.6%

Question: What about the inhibition at 5 µM (M348K-CFTR; 5000 nM Inh-172, read-out: percent inhibition of current, individual cell) of the same compound?
Answer: 90%

Question: What about the “percent inhibition of current” value (M348K-CFTR; 10000 nM Inh-172) of the same compound?
Answer: 89.0 and 83.0

Question: And the inhibition at 10 µM (M348K-CFTR; [7])?
Answer: 88%

Question: And the inhibition at 10 µM (M348K-CFTR; [8])?
Answer: 92%

Question: What about the “Hill Coefficient” value (M348K-CFTR; M348K) of the same compound?
Answer: 0.90 ± 0.10

Question: And the IC50 (M348K-CFTR; M348K)?
Answer: 520 ± 60 nM

Question: And the “percent inhibition of current” value ([2]; 50 nM Inh-172)?
Answer: 45.0 and 25.0

Question: What about the inhibition at 0.05 µM ([2]; 50 nM Inh-172, read-out: percent inhibition of current, Mean) of the same compound?
Answer: 35.8%

Question: What about the inhibition at 0.05 µM ([2]; 50 nM Inh-172, read-out: percent inhibition of current, individual cell) of the same compound?
Answer: 34%

Question: And the “percent inhibition of current” value ([2]; 100 nM Inh-172)?
Answer: 51.0 and 37.0 and 50.0

Question: And the inhibition at 0.1 µM [2, 3]?
Answer: 44.3%

Question: And the inhibition at 0.1 µM ([2]; 100 nM Inh-172, read-out: percent inhibition of current, individual cell)?
Answer: 39%

Question: And the “percent inhibition of current” value ([2]; 500 nM Inh-172)?
Answer: 86.0 and 76.0

Question: What about the inhibition at 0.5 µM [2, 4] of the same compound?
Answer: 81.8%

Question: What about the inhibition at 0.5 µM ([2]; 500 nM Inh-172, read-out: percent inhibition of current, individual cell) of the same compound?
Answer: 79%

Question: What about the “percent inhibition of current” value ([2]; 1000 nM Inh-172) of the same compound?
Answer: 94.0 and 89.0

Question: And the inhibition at 1 µM [2, 5]?
Answer: 92%

Question: What about the inhibition at 1 µM [2, 6] of the same compound?
Answer: 91%

Question: And the “percent inhibition of current” value ([2]; 10000 nM Inh-172)?
Answer: 100.0

Question: And the inhibition at 10 µM [2, 7]?
Answer: 99.8%

Question: What about the inhibition at 10 µM [2, 8] of the same compound?
Answer: 99%

Question: And the “Hill Coefficient” value ([2]; h-pTMD1-h)?
Answer: 0.98 ± 0.10

Question: And the IC50 ([2]; h-pTMD1-h)?
Answer: 110 ± 10 nM
